Test results from PMC11672637, “7-O-Carboxylic Acid-Substituted 3-O-Alkyl Difluoroquercetin; An Aztreonam-Potentiating Agent Against Carbapenemase-Producing Pseudomonas aeruginosa Through Simultaneous Inhibition of Metallo-β-Lactamase and Efflux Pump” (Antibiotics, 2024).

Tests used:
Assay in all cases: Time–kill assay
Assay type in all cases: cell-based, P. aeruginosa
[1] = system: PA-002, blaIMP; conditions: ATM 2 MIC + 5 at 8 mg/L
Experimental: (§1) Aliquots (50 μL) were taken from the incubation mixture at regular time intervals (t = 0, 3, 6, and 24 h), serially diluted in 0.85% NaCl solution, and plated on BAP. Bacterial colonies were counted, and the data are presented as the means of at least three independent experiments.

[2] = system: PA-003, blaVIM; conditions: for Log CFU/mL, ATM + 5: 24 h
Experimental: as §1

[3] = system: PA-014, blaGES; conditions: for Log CFU/mL, ATM + 5: 24 h
Experimental: as §1

[4] = system: PA-017, blaNDM; conditions: for Log CFU/mL, ATM + 5: 24 h
Experimental: as §1

CC(C)(C)CCOc1c(-c2ccc(F)c(F)c2)oc2cc(OCC(=O)O)cc(O)c2c1=O [Compound 5, 2-((2-(3,4-Difluorophenyl)-3-(3,3-dimethylbutoxy)-5-hydroxy-4-oxo-4H-chromen-7-yl)oxy)acetic Acid]
Diff. (ATM + 5, 24 h vs initial inoculum) [1]: −5.45 Log CFU/mL
Diff. (ATM + 5 vs ATM only) [1]: −5.5 Log CFU/mL
Synergistic activity, interpretation [1]: Synergy (a ≥ 2 log10 decrease in CFU/mL for the combination of ATM and 5 compared to ATM alone after 24 h of incubation)
Log CFU/mL, ATM + 5 ([1]; 24 h): 0.00 Log CFU/mL
Diff. (ATM + 5, 24 h vs initial inoculum) ([2]; ATM 1/2 MIC + 5 at 8 mg/L): 4.11 Log CFU/mL
Diff. (ATM + 5 vs ATM only) ([2]; ATM 1/2 MIC + 5 at 8 mg/L): −0.04 Log CFU/mL
Log CFU/mL, ATM + 5 ([2]; ATM 1/2 MIC + 5 at 8 mg/L): 9.84 Log CFU/mL
Diff. (ATM + 5, 24 h vs initial inoculum) ([2]; ATM 1/4 MIC + 5 at 8 mg/L): 4.35 Log CFU/mL
Diff. (ATM + 5 vs ATM only) ([2]; ATM 1/4 MIC + 5 at 8 mg/L): −0.1 Log CFU/mL
Log CFU/mL, ATM + 5 ([2]; ATM 1/4 MIC + 5 at 8 mg/L): 10.08 Log CFU/mL
Diff. (ATM + 5, 24 h vs initial inoculum) ([2]; ATM 1 MIC + 5 at 8 mg/L): −5.5 Log CFU/mL
Diff. (ATM + 5 vs ATM only) ([2]; ATM 1 MIC + 5 at 8 mg/L): −8.9 Log CFU/mL
Synergistic activity, interpretation ([2]; ATM 1 MIC + 5 at 8 mg/L): Synergy (a ≥ 2 log10 decrease in CFU/mL for the combination of ATM and 5 compared to ATM alone after 24 h of incubation)
Log CFU/mL, ATM + 5 ([2]; ATM 1 MIC + 5 at 8 mg/L): 0.23 Log CFU/mL
Diff. (ATM + 5, 24 h vs initial inoculum) ([2]; ATM 2 MIC + 5 at 8 mg/L): −5.73 Log CFU/mL
Diff. (ATM + 5 vs ATM only) ([2]; ATM 2 MIC + 5 at 8 mg/L): −6.4 Log CFU/mL
Synergistic activity, interpretation ([2]; ATM 2 MIC + 5 at 8 mg/L): Synergy (a ≥ 2 log10 decrease in CFU/mL for the combination of ATM and 5 compared to ATM alone after 24 h of incubation)
Log CFU/mL, ATM + 5 ([2]; ATM 2 MIC + 5 at 8 mg/L): 0.00 Log CFU/mL
Diff. (ATM + 5, 24 h vs initial inoculum) ([3]; ATM 1/2 MIC + 5 at 8 mg/L): 1.65 Log CFU/mL
Diff. (ATM + 5 vs ATM only) ([3]; ATM 1/2 MIC + 5 at 8 mg/L): −2.23 Log CFU/mL
Synergistic activity, interpretation ([3]; ATM 1/2 MIC + 5 at 8 mg/L): Synergy (a ≥ 2 log10 decrease in CFU/mL for the combination of ATM and 5 compared to ATM alone after 24 h of incubation)
Log CFU/mL, ATM + 5 ([3]; ATM 1/2 MIC + 5 at 8 mg/L): 6.60 Log CFU/mL
Diff. (ATM + 5, 24 h vs initial inoculum) ([3]; ATM 1/4 MIC + 5 at 8 mg/L): 3.88 Log CFU/mL
Diff. (ATM + 5 vs ATM only) ([3]; ATM 1/4 MIC + 5 at 8 mg/L): −0.5 Log CFU/mL
Log CFU/mL, ATM + 5 ([3]; ATM 1/4 MIC + 5 at 8 mg/L): 8.83 Log CFU/mL
Diff. (ATM + 5, 24 h vs initial inoculum) ([3]; ATM 1 MIC + 5 at 8 mg/L): −2.32 Log CFU/mL
Diff. (ATM + 5 vs ATM only) ([3]; ATM 1 MIC + 5 at 8 mg/L): −5.05 Log CFU/mL
Synergistic activity, interpretation ([3]; ATM 1 MIC + 5 at 8 mg/L): Synergy (a ≥ 2 log10 decrease in CFU/mL for the combination of ATM and 5 compared to ATM alone after 24 h of incubation)
Log CFU/mL, ATM + 5 ([3]; ATM 1 MIC + 5 at 8 mg/L): 2.63 Log CFU/mL
Diff. (ATM + 5, 24 h vs initial inoculum) ([3]; ATM 2 MIC + 5 at 8 mg/L): −4.8 Log CFU/mL
Diff. (ATM + 5 vs ATM only) ([3]; ATM 2 MIC + 5 at 8 mg/L): −2.3 Log CFU/mL
Synergistic activity, interpretation ([3]; ATM 2 MIC + 5 at 8 mg/L): Synergy (a ≥ 2 log10 decrease in CFU/mL for the combination of ATM and 5 compared to ATM alone after 24 h of incubation)
Log CFU/mL, ATM + 5 ([3]; ATM 2 MIC + 5 at 8 mg/L): 0.15 Log CFU/mL
Diff. (ATM + 5, 24 h vs initial inoculum) ([4]; ATM 1/2 MIC + 5 at 8 mg/L): 1.52 Log CFU/mL
Diff. (ATM + 5 vs ATM only) ([4]; ATM 1/2 MIC + 5 at 8 mg/L): −3.45 Log CFU/mL
Synergistic activity, interpretation ([4]; ATM 1/2 MIC + 5 at 8 mg/L): Synergy (a ≥ 2 log10 decrease in CFU/mL for the combination of ATM and 5 compared to ATM alone after 24 h of incubation)
Log CFU/mL, ATM + 5 ([4]; ATM 1/2 MIC + 5 at 8 mg/L): 6.52 Log CFU/mL
Diff. (ATM + 5, 24 h vs initial inoculum) ([4]; ATM 1/4 MIC + 5 at 8 mg/L): 4.97 Log CFU/mL
Diff. (ATM + 5 vs ATM only) ([4]; ATM 1/4 MIC + 5 at 8 mg/L): −0.77 Log CFU/mL
Log CFU/mL, ATM + 5 ([4]; ATM 1/4 MIC + 5 at 8 mg/L): 9.97 Log CFU/mL
Diff. (ATM + 5, 24 h vs initial inoculum) ([4]; ATM 1 MIC + 5 at 8 mg/L): −4.75 Log CFU/mL
Diff. (ATM + 5 vs ATM only) ([4]; ATM 1 MIC + 5 at 8 mg/L): −6.27 Log CFU/mL
Synergistic activity, interpretation ([4]; ATM 1 MIC + 5 at 8 mg/L): Synergy (a ≥ 2 log10 decrease in CFU/mL for the combination of ATM and 5 compared to ATM alone after 24 h of incubation)
Log CFU/mL, ATM + 5 ([4]; ATM 1 MIC + 5 at 8 mg/L): 0.25 Log CFU/mL
Diff. (ATM + 5, 24 h vs initial inoculum) ([4]; ATM 2 MIC + 5 at 8 mg/L): −5.00 Log CFU/mL
Diff. (ATM + 5 vs ATM only) ([4]; ATM 2 MIC + 5 at 8 mg/L): −0.12 Log CFU/mL
Log CFU/mL, ATM + 5 ([4]; ATM 2 MIC + 5 at 8 mg/L): 0.00 Log CFU/mL
